# Laboratory results from US11453683B1, “KRas G12D inhibitors” (Mirati Therapeutics, Inc., priority 2019, dated 2022).
# System: KRas G12D-mediated phosphorylation of ERK
# Test: Inhibition of KRas G12D-mediated phosphorylation of ERK in AGS cells
# Format: cell-based
# Conditions: Homo sapiens; AGS cells expressing G12D, 3 hours, phospho-ERK normalized to GAPDH
# How it was run: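 Fixed, methanol-permeabilized; phospho-ERK (Thr202/Tyr204) by in-cell immunofluorescence normalized to GAPDH. Percent of DMSO control, IC50 by 4-parameter fit.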
row,SMILES,IC50 [µM]
1,"CN1C[C@H](C(F)(F)F)C[C@H]1COc1nc(N2C[C@H]3CC[C@@H](C2)N3)c2cnc(-c3cc(O)cc4ccccc34)c(F)c2n1 [Example 28, 4-(4-((1R,5S)-3,8-diazabicyclo[3.2.1]octan-3-yl)-8-fluoro-2-(((2S,4R)-1-methyl-4-(trifluoromethyl)pyrrolidin-2-yl)methoxy)pyrido[4,3-d]pyrimidin-7-yl)naphthalen-2-ol]",11.7
2,"CN(C)c1ccccc1-c1ncc2c(N3C[C@H]4CC[C@@H](C3)N4)nc(OCC34CCCN3CCC4)nc2c1F [Example 296, 2-(4-((1R,5S)-3,8-diazabicyclo[3.2.1]octan-3-yl)-8-fluoro-2-((hexahydro-1H-pyrrolizin-7a-yl)methoxy)pyrido[4,3-d]pyrimidin-7-yl)-N,N-dimethylaniline]",8.47
3,"Oc1cc(-c2ncc3c(N4C[C@H]5CC[C@@H](C4)N5)nc(OC[C@@]45CCCN4C[C@H](F)C5)nc3c2F)c2c(Cl)cccc2c1 [Example 251, 4-(4-((1R,5S)-3,8-diazabicyclo[3.2.1]octan-3-yl)-8-fluoro-2-(((2R,7aS)-2-fluorohexahydro-1H-pyrrolizin-7a-yl)methoxy)pyrido[4,3-d]pyrimidin-7-yl)-5-chloronaphthalen-2-ol]",0.0103
4,"CCc1c(F)ccc2cc(O)cc(-c3ncc4c(N5C[C@H]6CC[C@@H](C5)N6)nc(OCC56CCCN5CCC6)nc4c3F)c12 [Example 314, 4-(4-((1R,5S)-3,8-diazabicyclo[3.2.1]octan-3-yl)-8-fluoro-2-((hexahydro-1H-pyrrolizin-7a-yl)methoxy)pyrido[4,3-d]pyrimidin-7-yl)-5-ethyl-6-fluoronaphthalen-2-ol]",0.0037
5,"Fc1c(-c2cccc3cccc(Cl)c23)ncc2c(N3C[C@H]4CC[C@@H](C3)N4)nc(OCC34CC(F)CN3CC(F)C4)nc12 (stereo partly drawn) [Example 425, 4-((1R,5S)-3,8-diazabicyclo[3.2.1]octan-3-yl)-7-(8-chloronaphthalen-1-yl)-2-((2,6-difluorohexahydro-1H-pyrrolizin-7a-yl)methoxy)-8-fluoropyrido[4,3-d]pyrimidine]",5.41
6,"Oc1cc(-c2ncc3c(N4CC5CCC(C4)N5)nc(OCC45CCCN4C[C@H](F)C5)nc3c2F)c2c(Cl)cccc2c1 (mixture of isomers) [Example 330, 4-(4-((1R,5S)-3,8-diazabicyclo[3.2.1]octan-3-yl)-8-fluoro-2-((2-fluorotetrahydro-1H-pyrrolizin-7a(5H)-yl)methoxy)pyrido[4,3-d]pyrimidin-7-yl)-5-chloronaphthalen-2-ol]",0.0118
7,"Fc1c(-c2ccccc2C2CC2)ncc2c(N3C[C@H]4CC[C@@H](C3)N4)nc(OCC34CCCN3CCC4)nc12 [Example 297, 4-((1R,5S)-3,8-diazabicyclo[3.2.1]octan-3-yl)-7-(2-cyclopropylphenyl)-8-fluoro-2-((hexahydro-1H-pyrrolizin-7a-yl)methoxy)pyrido[4,3-d]pyrimidine]",6.56
8,"Fc1ccc2cccc(-c3ncc4c(N5CC6CCC(C5)N6)nc(OC[C@@]56CCCN5C[C@H](F)C6)nc4c3F)c2c1Cl (racemic) [Example 336, 4-((1R,5S)-3,8-diazabicyclo[3.2.1]octan-3-yl)-7-(8-chloro-7-fluoronaphthalen-1-yl)-8-fluoro-2-((2-fluorotetrahydro-1H-pyrrolizin-7a(5H)-yl)methoxy)pyrido[4,3-d]pyrimidine]",1.06
9,"Oc1cc(-c2ncc3c(N4C[C@H]5CC[C@@H](C4)N5)nc(OCCc4ccccn4)nc3c2F)c2ccccc2c1 [Example 4, 4-(4-((1R,5S)-3,8-diazabicyclo[3.2.1]octan-3-yl)-8-fluoro-2-(2-(pyridin-2-yl)ethoxy)pyrido[4,3-d]pyrimidin-7-yl)naphthalen-2-ol]",8.53
10,"[O-][S+]1CCC(Oc2nc(N3C[C@H]4CC[C@@H](C3)N4)c3cnc(-c4cc(O)cc5ccccc45)c(F)c3n2)CC1 (stereo partly drawn) [Example 82, 4-((4-((1R,5S)-3,8-diazabicyclo[3.2.1]octan-3-yl)-8-fluoro-7-(3-hydroxynaphthalen-1-yl)pyrido[4,3-d]pyrimidin-2-yl)oxy)tetrahydro-2H-thiopyran 1-oxide]",> 16.7
